In PubChem BioAssay (NCI) one finds TGI data, which are given here for 25 compounds.

Values joined by “and” are separate entries in the source; they are usually repeats but may differ in a detail not shown here. Equal values may be shown once.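 Protocol summary: plate cells (96-well), add compound at 5 concentrations, incubate 48 h, interpolate endpoints linearly. TGI is the concentration that stops growth completely.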

Among the test systems are K-562 leukemia; OVCAR-4 ovarian; SK-MEL-28 melanoma; TK-10 renal; UACC-257 melanoma; HS 578T breast; LOX IMVI melanoma; NCI/ADR-RES ovarian; SK-MEL-5 melanoma; RXF 393 renal.
Experiment in all cases: growth of human tumour cells (NCI), 48 h

In the case of `Cc1ccc(S(=O)(=O)C(C#N)c2nc3ccccc3nc2-n2cccn2)cc1` (stereo unspecified), the TGI with K-562 leukemia, in the experiment with OVCAR-4 ovarian, in the experiment with SK-MEL-28 melanoma, in the experiment on TK-10 renal and in the experiment on UACC-257 melanoma was more than 100 µM each time.
Consider `Cc1ccc(Nc2nc(=O)[nH]c(=O)[nH]2)cc1N`, for which the TGI in the experiment on HS 578T breast, with LOX IMVI melanoma, in the experiment with NCI/ADR-RES ovarian, with OVCAR-4 ovarian, in the experiment on SK-MEL-28 melanoma and in the experiment with SK-MEL-5 melanoma was more than 100 µM throughout. The TGI in the experiment on TK-10 renal and with UACC-257 melanoma was more than 100 µM in each case.
Regarding `O=C1/C(=C/c2ccccc2S)N=C(c2ccccc2)N1c1ccc2c(c1)Sc1cc(N3C(=O)/C(=C/c4ccccc4S)N=C3c3ccccc3)ccc1N2`, the TGI with HS 578T breast is 72.4 µM; in the experiment with K-562 leukemia, 51 µM; in the experiment with LOX IMVI melanoma, 48.1 µM; with NCI/ADR-RES ovarian, more than 100 µM; with OVCAR-4 ovarian, 90.5 µM; in the experiment with SK-MEL-28 melanoma, 44.5 µM. In addition, the TGI in the experiment on SK-MEL-5 melanoma was determined as 30.7 µM; in the experiment with TK-10 renal, 31.3 µM; in the experiment with UACC-257 melanoma, 42.3 µM.
Regarding `COc1cc(C2C(Cl)C(=O)N2c2ccc(Br)cc2)cc(I)c1O` (stereo unspecified), the TGI in the experiment on HS 578T breast, in the experiment with K-562 leukemia, in the experiment on LOX IMVI melanoma, with NCI/ADR-RES ovarian, in the experiment with OVCAR-4 ovarian and in the experiment with SK-MEL-5 melanoma was more than 100 µM each time. Moreover, the TGI in the experiment on TK-10 renal and in the experiment on UACC-257 melanoma was more than 100 µM throughout.
In the case of `O=C1CCC2(CC1)Cc1ccccc1C2O` (stereo unspecified), the TGI in the experiment with HS 578T breast, in the experiment with K-562 leukemia, in the experiment with LOX IMVI melanoma, in the experiment on NCI/ADR-RES ovarian, in the experiment on OVCAR-4 ovarian and in the experiment on SK-MEL-28 melanoma was more than 100 µM throughout. Besides, the TGI in the experiment on SK-MEL-5 melanoma, with TK-10 renal and in the experiment with UACC-257 melanoma was more than 100 µM in each case.
As to `CC(=O)Oc1ccc2cc(Oc3ccc(Cl)cc3)c(=O)oc2c1`, the TGI is more than 100 µM in the experiment on HS 578T breast; more than 100 µM with LOX IMVI melanoma; more than 100 µM in the experiment on OVCAR-4 ovarian; more than 100 µM in the experiment with RXF 393 renal; more than 100 µM in the experiment with SK-MEL-28 melanoma; 41.9 µM with SK-MEL-5 melanoma. The TGI in the experiment on TK-10 renal is more than 100 µM; in the experiment on UACC-257 melanoma, 78.7 µM.
Regarding `CC1(C)CC(=O)C(/C=N/c2nc(-c3ccc(Br)cc3)cs2)=C(O)C1`, the TGI in the experiment on LOX IMVI melanoma is 52.4 µM; with NCI/ADR-RES ovarian, more than 100 µM; in the experiment on OVCAR-4 ovarian it was more than 100 µM; in the experiment on SK-MEL-28 melanoma it was more than 100 µM; in the experiment on SK-MEL-5 melanoma, more than 100 µM; with TK-10 renal it was 40.2 µM. Also, in the experiment on UACC-257 melanoma, the TGI was 38.3 µM.
As to `Cc1ccc2ccccc2c1CC1S(=O)(=O)OCCOS1(=O)=O`, the TGI in the experiment on K-562 leukemia is 34 µM; in the experiment on LOX IMVI melanoma, 22.2 µM; in the experiment with NCI/ADR-RES ovarian, 72.4 µM; in the experiment with OVCAR-4 ovarian, 23.6 µM; in the experiment with SK-MEL-28 melanoma, 32.8 µM; in the experiment on SK-MEL-5 melanoma, 26.4 µM. Moreover, the TGI with TK-10 renal was 31.1 µM; with UACC-257 melanoma, 41.2 µM.
For `C=C[C@]1(C)CC[C@]2(C)C(CC[C@@]3(C)C2C[C@H](O)[C@H](O)[C@@]3(C)O)C1` (stereo partly specified), the TGI with HS 578T breast, in the experiment on K-562 leukemia, in the experiment with LOX IMVI melanoma, in the experiment on NCI/ADR-RES ovarian, with SK-MEL-28 melanoma and with SK-MEL-5 melanoma was more than 100 µM throughout. The TGI with TK-10 renal and in the experiment on UACC-257 melanoma was more than 100 µM each time.
As for `CC(C)(CN1CCCCC1)C(=O)CC(SCCS(=O)(=O)O)c1ccc(Br)cc1` (stereo unspecified), the TGI worked out at 8.63 µM in the experiment on K-562 leukemia; 4.06 µM in the experiment on OVCAR-4 ovarian; 2.71 µM in the experiment with RXF 393 renal; 8.7 µM in the experiment on SK-MEL-28 melanoma; 3.32 µM in the experiment on SK-MEL-5 melanoma; 7.97 µM in the experiment with TK-10 renal. The compound also registered a TGI in the experiment on UACC-257 melanoma of 11.5 µM.
As for `COc1ccccc1C(=O)c1c(N2CCCCC2)c(=O)c1=O`, the TGI in the experiment on K-562 leukemia, with LOX IMVI melanoma, with NCI/ADR-RES ovarian, in the experiment on OVCAR-4 ovarian, in the experiment on RXF 393 renal and in the experiment on SK-MEL-28 melanoma was more than 100 µM each time. Moreover, the TGI with SK-MEL-5 melanoma, with TK-10 renal and in the experiment on UACC-257 melanoma was more than 100 µM throughout.
Turning to `CC(=O)O[C@]12CCCCCCC1C1(O)C(O)CCC[C@H]12` (stereo partly specified), the TGI in the experiment on K-562 leukemia, with LOX IMVI melanoma, in the experiment with OVCAR-4 ovarian, with RXF 393 renal, in the experiment with SK-MEL-28 melanoma and in the experiment on SK-MEL-5 melanoma was more than 100 µM in each case. Further, the TGI in the experiment with TK-10 renal and in the experiment on UACC-257 melanoma was more than 100 µM throughout.
On to `Cc1ccc2c(c1)c(=O)c1c(NCCN(C)C)ccc3nnn2c31`, for which the TGI in the experiment on K-562 leukemia turned out to be 19.6 µM; in the experiment with LOX IMVI melanoma, 4.6 µM; in the experiment on OVCAR-4 ovarian, 12.9 µM; in the experiment with RXF 393 renal, 16.9 µM; with SK-MEL-28 melanoma, 18 µM; in the experiment on SK-MEL-5 melanoma, 14.1 µM. Further, the results for the TGI in the experiment with TK-10 renal and with UACC-257 melanoma were 28.3 µM and 14.2 µM, respectively.
Regarding `c1ccc(C2=NN3CN(N2)c2ccccc2OCCCOc2ccccc23)cc1`, the TGI in the experiment with K-562 leukemia, in the experiment on LOX IMVI melanoma, in the experiment with OVCAR-4 ovarian, in the experiment on RXF 393 renal, in the experiment with SK-MEL-28 melanoma and in the experiment with SK-MEL-5 melanoma was more than 100 µM in each case. Besides, the TGI in the experiment with TK-10 renal was more than 100 µM.
With `C=CCc1c(O)c2ccccc2[nH]c1=O`, the TGI in the experiment on HS 578T breast, with K-562 leukemia, with LOX IMVI melanoma, with NCI/ADR-RES ovarian, with OVCAR-4 ovarian and with SK-MEL-28 melanoma was more than 100 µM throughout. Besides, the TGI with SK-MEL-5 melanoma, with TK-10 renal and in the experiment with UACC-257 melanoma was more than 100 µM throughout.
For the compound `O=C1NC(=O)/C(=C\c2ccncc2)N1`, the TGI in the experiment on LOX IMVI melanoma, in the experiment on NCI/ADR-RES ovarian, in the experiment with OVCAR-4 ovarian, in the experiment with SK-MEL-28 melanoma, in the experiment with SK-MEL-5 melanoma and in the experiment with TK-10 renal was more than 100 µM throughout. Besides, the TGI with UACC-257 melanoma was more than 100 µM.
Regarding `CCCCN(CCCC)C(=NCc1ccccc1)NC#N`, the TGI with K-562 leukemia was 28.3 µM; in the experiment with LOX IMVI melanoma, 30.4 µM; in the experiment on OVCAR-4 ovarian, more than 100 µM; in the experiment on RXF 393 renal it was 39.8 µM; with SK-MEL-5 melanoma, 38.9 µM; in the experiment with TK-10 renal it was 85.2 µM. The TGI in the experiment on UACC-257 melanoma was determined as 67.5 µM.
Take `NC1=NS(=O)(=O)N=C(N)C1=Cc1ccc([N+](=O)[O-])o1`: the TGI turned out to be 19.5 µM in the experiment with K-562 leukemia; 33.2 µM with LOX IMVI melanoma; 34.1 µM in the experiment with OVCAR-4 ovarian; 32.8 µM in the experiment with RXF 393 renal; 29.5 µM in the experiment on SK-MEL-28 melanoma; 28.6 µM in the experiment with SK-MEL-5 melanoma. Moreover, the TGI in the experiment with TK-10 renal was determined as 32.6 µM; in the experiment on UACC-257 melanoma, 28.9 µM.
For `Brc1ccc(N2C[N+](c3ccc(Br)cc3)=NC(c3ccccc3)=N2)cc1`, the TGI in the experiment with K-562 leukemia was 32.8 µM and > 100 µM; in the experiment on OVCAR-4 ovarian, 35.3 µM and > 100 µM; in the experiment on RXF 393 renal, 37.7 µM and > 100 µM; with SK-MEL-28 melanoma, 39.2 µM and > 100 µM; in the experiment on SK-MEL-5 melanoma it was 29.4 µM and > 100 µM; in the experiment with TK-10 renal it was 38 µM and > 100 µM. Further, the TGI with UACC-257 melanoma is 31.3 µM and > 100 µM.
As for `CCCCCCCCCCCCCCCCOCC(CC(F)(F)P(=O)(O)O)OC(C)=O` (stereo unspecified), the TGI in the experiment with K-562 leukemia, with NCI/ADR-RES ovarian, in the experiment with SK-MEL-28 melanoma, in the experiment with SK-MEL-5 melanoma, with TK-10 renal and with UACC-257 melanoma was more than 50 µM throughout.
`O=C1CSC2(CC(/C=C/C=C/c3ccccc3)=NN2c2cccc(S(=O)(=O)O)c2)N1c1nc2ccccc2s1` (stereo unspecified): the TGI in the experiment with K-562 leukemia is more than 100 µM; with LOX IMVI melanoma it was 42.2 µM; in the experiment on NCI/ADR-RES ovarian it was more than 100 µM; in the experiment on OVCAR-4 ovarian, more than 100 µM; in the experiment with RXF 393 renal, more than 100 µM; in the experiment with SK-MEL-28 melanoma, more than 100 µM. Moreover, the TGI in the experiment with SK-MEL-5 melanoma, with TK-10 renal and in the experiment on UACC-257 melanoma was more than 100 µM each time.
With `Oc1ccc(-c2c3c(nc4c2CCc2ccc(Br)cc2-4)-c2cc(Br)ccc2CC3)cc1`, the TGI in the experiment on NCI/ADR-RES ovarian stood at 46 µM; in the experiment on OVCAR-4 ovarian, 48 µM; with SK-MEL-28 melanoma it was 38.9 µM; with SK-MEL-5 melanoma, 35.7 µM; in the experiment on TK-10 renal, 45.4 µM; in the experiment with UACC-257 melanoma it was 69.4 µM.
As to `Cc1cnc(Cl)nc1C(C#N)c1nc2ccccc2n1C` (stereo unspecified), the TGI in the experiment with LOX IMVI melanoma, with NCI/ADR-RES ovarian, in the experiment with OVCAR-4 ovarian, with RXF 393 renal, with SK-MEL-28 melanoma and with SK-MEL-5 melanoma was more than 100 µM each time. The TGI in the experiment on TK-10 renal and in the experiment on UACC-257 melanoma was more than 100 µM each time.
On to `O=C1CCC2(CCC(=O)NC2=O)C(=O)N1`, for which the TGI with K-562 leukemia, in the experiment on LOX IMVI melanoma, with RXF 393 renal, with SK-MEL-28 melanoma, in the experiment on SK-MEL-5 melanoma and in the experiment with TK-10 renal was more than 100 µM in each case. Also, in the experiment with UACC-257 melanoma, the TGI was more than 100 µM.
Turning to `O=C(c1cccs1)N(C(=S)N1CCN(c2ccccc2)CC1)c1ccccc1`, the TGI in the experiment on K-562 leukemia, in the experiment with LOX IMVI melanoma, in the experiment with OVCAR-4 ovarian, in the experiment with RXF 393 renal, with SK-MEL-28 melanoma and in the experiment on SK-MEL-5 melanoma was more than 100 µM each time. Further, the TGI in the experiment with TK-10 renal and in the experiment with UACC-257 melanoma was more than 100 µM in each case.
